Laboratory results reported in patent US5071965A, “Novel TC-99M complexes” (Mallinckrodt Medical, Inc., priority 1989, dated 1991).
Where two headings read alike, the source gives them in different places.

How the values were obtained:
[1] = Biodistribution of Tc-99m complexes in guinea pigs (heart uptake, heart/blood); conditions: 5 minutes, Tc-99m complex; for 5 Minute Guinea Pig % HT Uptake: jugular vein injection
Method: (§1) The procedures used for determining biodistribution are as follows.
(§2) Guinea Pigs--The guinea pigs are anesthetized and the technetium complex is injected into the jugular vein after a cutdown. The animals are sacrificed after 5 minutes and the organs removed and counted as with the rats.
(§3) For guinea pigs, significant heart uptake is determined if the percentage of technetium in the heart is greater than 0.5% and the heart/blood ratio is greater than 1.

[2] = literature, Green et al. 1985; cited from earlier work
[3] = in vivo; cited from earlier work
[4] = rat, in vivo; cited from earlier work
[5] = in vivo, 5 min
Method: as §1, §2, §3

Molecule | 5 Minute Guinea Pig % HT Uptake [1] [%] | further results
Oc1ccccc1C=NCC(CN=Cc1ccccc1O)(CN=Cc1ccccc1O)COc1cccc2ccccc12 (stereo not drawn) [phenol, 2,2'[[2-[[[(2-hydroxyphenyl)methylene]amino]methyl]-2-α-napthoxymethyl-1,3-propanediyl]bis(nitrilomethylidyne)]bis-] | 0.72 | –
COc1ccc(O)c(C=NCC(C)(CN=Cc2cc(OC)ccc2O)CN=Cc2cc(OC)ccc2O)c1 (stereo not drawn) [1,1,1-tris (5-methoxysalicyl-aldiminomethyl) ethane] | – | overall charge [2]: no overall charge; washout from the heart (images of a dog's heart) [3]: washed out quickly from the heart; washout from the heart (biodistribution data in rats) [4]: washed out quickly from the heart
CCCOCC(CN=Cc1ccccc1O)(CN=Cc1ccccc1O)CN=Cc1ccccc1O (stereo not drawn) [phenol, 2,2'-[[2-[[[(2-hydroxyphenyl)methylene]amino]methyl]-2-propoxymethyl-1,3-propanediyl]bis(nitrilomethylidyne)]bis-] | 1.48 | Guinea Pig Heart/Blood Ratio [1]: 18
CCCCCCCC(=O)OCC(CN=Cc1ccccc1O)(CN=Cc1ccccc1O)CN=Cc1ccccc1O (stereo not drawn) [phenol, 2,2'-[[2-[[[(2-hydroxypheny)methylene]amino]methyl]-2-octanoyloxymethyl-1,3-propanediyl]bis(nitrilomethylidyne)]bis-] | 0.88 | –
CCCCOCC(CN=Cc1ccccc1O)(CN=Cc1ccccc1O)CN=Cc1ccccc1O (stereo not drawn) [Phenol, 2,2'[[-[[[(2-hydroxyphenyl)methylene]amino]methyl]-2-butoxymethyl-1,3-propandiyl]bis(nitrilomethylidyne)]bis-] | 1.463 | –
phenol, 2,2'-[[2-[[[(2-hydroxyphenyl)methylene]amino]methyl]-2-(4-methoxy-4-methyl)pentyl-1,3-propanediyl]bis(nitrilomethylidyne)]bis- | 1.61 | –
COCC(CN=Cc1ccccc1O)(CN=Cc1ccccc1O)CN=Cc1ccccc1O (stereo not drawn) [phenol, 2,2'-[[2-[[[(2-hydroxyphenyl)methylene]amino]methyl]-2-methoxymethyl-1,3-propanediyl]bis(nitrilomethylidyne)]bis-] | 1.44 | –
Oc1ccccc1C=NCC(CN=Cc1ccccc1O)CN=Cc1ccccc1O (stereo not drawn) [R5=H, R6=H, R7=H, R8=H, R3=H, R4=H, phenol, 2,2'-[[2-[[[ (2-hydroxyphenyl)methylene]amino]methyl]-1,3-propanediyl]bis(nitrilomethylidyne)]bis-] | 1.29 | –
COc1cc(O)c(C=NCC(CN=Cc2c(O)cc(OC)c(OC)c2OC)(CN=Cc2c(O)cc(OC)c(OC)c2OC)COCc2ccccc2)c(OC)c1OC (stereo not drawn) [3,4,5-trimethoxyphenol, 2,2'-[[2-[[[(4,5,6-trimethoxy-2-hydroxyphenyl)methylene]amino]methyl]-2-phenylmethoxymethyl-1,3-propanediyl]bis(nitrilomethylidyne)]bis-] | 0.60 | –
CCC(=NCC(C)(CN=C(CC)c1ccccc1O)CN=C(CC)c1ccccc1O)c1ccccc1O (stereo not drawn) [phenol, 2,2'-[[2-[[[(2-hydroxyphenyl)propylene]amino]methyl]-2-methyl-1,3-propanediyl]bis(nitrilopropylidyne)]bis-] | 0.76 | –
COc1c(O)c(C=NCC(C)(CN=Cc2c(O)c(OC)c(OC)c(OC)c2OC)CN=Cc2c(O)c(OC)c(OC)c(OC)c2OC)c(OC)c(OC)c1OC (stereo not drawn) [2,3,4,5-tetramethoxyphenol, 6,6'-[[2-[[[(3,4,5,6-tetramethoxy-2-hydroxyphenyl)methylene]amino]methyl]-2-methyl-1,3-propanediyl]bis(nitrilomethylidyne)]bis-] | 1.24 | –
CC(=NCC(C)(CN=C(C)c1cc(F)ccc1O)CN=C(C)c1cc(F)ccc1O)c1cc(F)ccc1O (stereo not drawn) [R5=H, R6=H, R7=F, R8=H, R3=CH3, R4=CH3, 1',1',1'-tris(5-fluoro-2-hydroxyacetophenoiminemethyl)ethane] | – | 5 Minute Guinea Pig % HT Uptake [5]: 0.66%

Now from value to molecule, other results behind:

5 Minute Guinea Pig % HT Uptake [1] [%] | Molecule | further results
1.82 | Cc1ccc(O)c(C=NCC(C)(CN=Cc2cc(C)ccc2O)CN=Cc2cc(C)ccc2O)c1 (stereo not drawn) [R5=H, R6=H, R7=CH3, R8=H, R3=H, R4=CH3] | Guinea Pig Heart/Blood Ratio [1]: 18
1.72 | CC(C)COCC(CN=Cc1ccccc1O)(CN=Cc1ccccc1O)CN=Cc1ccccc1O (stereo not drawn) [Phenol, 2,2'-[[2-[[[(2-hydroxyphenyl)methylene]amino]methyl]-2-(2-methylpropoxy)methyl-1,3-propandiyl]bis(nitrilomethylidyne)]-] | –
1.07 | COc1c(C)cc(O)c(C=NCC(C)(CN=Cc2c(O)cc(C)c(OC)c2C)CN=Cc2c(O)cc(C)c(OC)c2C)c1C (stereo not drawn) [3,5-dimethyl-4-methoxyphenol, 2,2'-[[2-[[[(4,6-dimethyl-5-methoxy-2-hydroxyphenyl)methylene]amino]methyl]-2-methyl-1,3-propanediyl]bis(nitrilomethylidyne)]bis-] | –
1.79 | CCCOCC(CN=Cc1ccc(C)cc1O)(CN=Cc1ccc(C)cc1O)CN=Cc1ccc(C)cc1O (stereo not drawn) [3-Methylphenol, 6,6'-[[2-[[[(4-methyl-2-hydroxyphenyl)methylene]amino]methyl]-2-propoxymethyl-1,3-propanediyl]bis(nitrilomethylidyne)]bis-] | –
1.14 | Oc1ccc(F)cc1C=NCC(CN=Cc1cc(F)ccc1O)(CN=Cc1cc(F)ccc1O)COCc1ccccc1 (stereo not drawn) [4-fluorophenol, 2,2'-[[2-[[[(5-fluoro-2-hydroxyphenyl)methylene]amino]methyl]-2-phenylmethoxymethyl-1,3-propanediyl]bis(nitrilomethylidyne)]bis-] | –
1.30 | CC(CN=Cc1cc(F)ccc1O)(CN=Cc1cc(F)ccc1O)CN=Cc1cc(F)ccc1O (stereo not drawn) [R5=H, R6=H, R7=F, R8=H, R3=H, R4=CH3] | –
1.23 | CSc1ccc(O)c(C=NCC(C)(CN=Cc2cc(SC)ccc2O)CN=Cc2cc(SC)ccc2O)c1 (stereo not drawn) [R5=H, R6=H, R7=SCH3, R8=H, R3=H, R4=CH3, 4-methylthiophenol, 2,2'-[[2-[[[(5-methylthio-2-hydroxyphenyl)methylene]amino-]methyl]-2-methyl-1,3-propanediyl]bis(nitrilomethylidyne)]bis-] | –
1.52 | CCCOCC(CN=Cc1cc(OC)ccc1O)(CN=Cc1cc(OC)ccc1O)CN=Cc1cc(OC)ccc1O (stereo not drawn) [4-Methoxyphenyl, 2,2'-[[2-[[[(5-methoxy-2-hydroxyphenyl)methylene]amino]methyl] -2-propoxymethyl-1,3-propanediyl]bis(nitrilomethylidyne)]bis-] | –
1.57 | COc1cc(O)c(C=NCC(C)(CN=Cc2c(O)cc(OC)c(OC)c2OC)CN=Cc2c(O)cc(OC)c(OC)c2OC)c(OC)c1OC (stereo not drawn) [3,4,5-trimethoxyphenol, 2,2'-[[2-[[[(4,5,6-trimethoxy-2-hydroxyphenyl)methylene]amino]methyl]-2-methyl-1,3-propanediyl]bis(nitrilomethylidyne)]bis-] | –
1.21 | CCCOCC(CN=Cc1c(O)cc(OC)cc1OC)(CN=Cc1c(O)cc(OC)cc1OC)CN=Cc1c(O)cc(OC)cc1OC (stereo not drawn) [3,5-dimethoxyphenol, 2,2'-[[2-[[[(4,6-dimethoxy-2-hydroxyphenyl)methylene]amino]methyl]-2-propoxymethyl-1,3-propanediyl]bis(nitrilomethylidyne)]bis-] | –
1.15 | CCCCCC(CN=Cc1ccccc1O)(CN=Cc1ccccc1O)CN=Cc1ccccc1O (stereo not drawn) [Phenol, 2,2'-[[2[[[(2-hydroxyphenyl)methylene]amino]methyl]-2-pentyl-1,3-propanediyl]bis(nitrilomethylidyne)]bis-] | –
